From patent US12617813B2, “Glycosylated histone deacetylase inhibitors and methods of making and using the same” (Georgia Tech Research Corporation, priority 2020, dated 2026) come the findings set out here.

One assay has as its target HDAC2 (Homo sapiens, UniProt Q92769). As to the kind of experiment: HDAC inhibition, HDAC2. The format is biochemical.
In the next assay the target is HDAC1 (Homo sapiens, UniProt Q13547). As to the kind of experiment: HDAC inhibition, HDAC1. The class given is biochemical.
Chain of HDAC1 (Q13547 whole entry): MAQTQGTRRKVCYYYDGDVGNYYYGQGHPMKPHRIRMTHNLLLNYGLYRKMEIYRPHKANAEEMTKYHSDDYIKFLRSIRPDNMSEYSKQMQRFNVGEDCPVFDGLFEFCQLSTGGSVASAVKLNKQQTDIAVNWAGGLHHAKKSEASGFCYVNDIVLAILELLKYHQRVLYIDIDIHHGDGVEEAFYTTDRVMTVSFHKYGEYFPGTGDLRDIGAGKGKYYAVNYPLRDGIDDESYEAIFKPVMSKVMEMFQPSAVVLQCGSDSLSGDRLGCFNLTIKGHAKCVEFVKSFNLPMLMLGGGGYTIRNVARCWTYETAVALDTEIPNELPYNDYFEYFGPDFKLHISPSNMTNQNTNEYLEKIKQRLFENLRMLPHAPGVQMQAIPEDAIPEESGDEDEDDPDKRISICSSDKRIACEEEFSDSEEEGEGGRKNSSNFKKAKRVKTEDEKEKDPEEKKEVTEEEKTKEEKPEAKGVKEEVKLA
The target in a further assay is T1, HDAC8 (Homo sapiens, UniProt Q9BY41).
T1 sequence (Q9BY41 1-377): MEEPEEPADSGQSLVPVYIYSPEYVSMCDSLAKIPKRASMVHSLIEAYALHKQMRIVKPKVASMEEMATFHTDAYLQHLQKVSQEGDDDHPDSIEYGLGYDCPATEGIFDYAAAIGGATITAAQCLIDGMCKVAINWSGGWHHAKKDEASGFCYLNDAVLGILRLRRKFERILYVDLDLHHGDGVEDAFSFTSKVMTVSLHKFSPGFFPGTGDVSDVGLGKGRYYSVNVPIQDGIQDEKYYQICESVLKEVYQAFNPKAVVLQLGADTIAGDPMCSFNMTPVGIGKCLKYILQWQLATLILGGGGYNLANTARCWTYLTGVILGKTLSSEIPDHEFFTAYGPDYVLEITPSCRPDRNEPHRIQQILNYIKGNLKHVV
As to the kind of experiment: HDAC inhibition, HDAC8. The class given is biochemical.

The target of the next assay is T2, HDAC6 (Homo sapiens, UniProt Q9UBN7).
T2 sequence (Q9UBN7 1-1215): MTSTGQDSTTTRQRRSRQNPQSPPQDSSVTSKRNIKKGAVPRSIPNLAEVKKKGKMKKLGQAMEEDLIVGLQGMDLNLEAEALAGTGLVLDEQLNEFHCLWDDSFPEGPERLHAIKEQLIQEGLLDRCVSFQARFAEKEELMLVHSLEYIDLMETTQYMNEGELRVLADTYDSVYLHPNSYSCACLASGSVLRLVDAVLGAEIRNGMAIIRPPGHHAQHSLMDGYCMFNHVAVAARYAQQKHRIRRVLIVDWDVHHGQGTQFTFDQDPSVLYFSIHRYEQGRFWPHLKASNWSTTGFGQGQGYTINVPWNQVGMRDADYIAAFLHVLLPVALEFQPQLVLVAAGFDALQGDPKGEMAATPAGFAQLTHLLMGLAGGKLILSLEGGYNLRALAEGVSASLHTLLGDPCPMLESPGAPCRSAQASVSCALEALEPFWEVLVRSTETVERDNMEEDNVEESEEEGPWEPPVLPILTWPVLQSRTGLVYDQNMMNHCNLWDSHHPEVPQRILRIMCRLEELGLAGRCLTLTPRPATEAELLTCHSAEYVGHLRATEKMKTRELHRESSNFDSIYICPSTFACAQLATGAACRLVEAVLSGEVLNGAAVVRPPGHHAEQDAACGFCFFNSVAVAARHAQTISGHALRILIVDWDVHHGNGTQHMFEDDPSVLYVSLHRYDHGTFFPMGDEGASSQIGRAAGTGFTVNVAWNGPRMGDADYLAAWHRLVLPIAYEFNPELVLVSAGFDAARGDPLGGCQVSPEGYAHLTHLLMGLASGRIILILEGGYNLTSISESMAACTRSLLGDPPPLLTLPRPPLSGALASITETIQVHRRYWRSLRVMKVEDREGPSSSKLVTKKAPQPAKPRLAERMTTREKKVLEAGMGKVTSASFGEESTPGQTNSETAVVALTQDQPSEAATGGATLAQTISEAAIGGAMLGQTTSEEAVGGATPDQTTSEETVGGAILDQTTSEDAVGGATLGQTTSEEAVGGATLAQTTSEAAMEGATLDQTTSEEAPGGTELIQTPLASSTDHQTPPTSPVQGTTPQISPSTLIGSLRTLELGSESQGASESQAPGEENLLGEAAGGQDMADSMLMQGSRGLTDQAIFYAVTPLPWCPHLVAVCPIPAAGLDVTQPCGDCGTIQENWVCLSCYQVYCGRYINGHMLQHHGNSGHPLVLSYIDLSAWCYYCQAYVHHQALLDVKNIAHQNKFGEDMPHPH
As to the kind of experiment: HDAC inhibition, HDAC6. The format is biochemical.

The test system of the next assay is VERO. As to the kind of experiment: Cell growth inhibition, VERO. The format is cell-based. The conditions noted are these: Chlorocebus sabaeus, NI = No Inhibition at 100 uM.
The next assay concerns Hep-G2. As to the kind of experiment: Cell growth inhibition, Hep-G2. The class given is cell-based. The conditions noted are these: Homo sapiens, HepG2, NI = No Inhibition at 100 uM.
The next assay deals with A549. As to the kind of experiment: Cell growth inhibition, A549. The conditions noted are these: Homo sapiens, NI = No Inhibition at 100 uM. The format is cell-based.

Chain of HDAC2 (Q92769 whole entry): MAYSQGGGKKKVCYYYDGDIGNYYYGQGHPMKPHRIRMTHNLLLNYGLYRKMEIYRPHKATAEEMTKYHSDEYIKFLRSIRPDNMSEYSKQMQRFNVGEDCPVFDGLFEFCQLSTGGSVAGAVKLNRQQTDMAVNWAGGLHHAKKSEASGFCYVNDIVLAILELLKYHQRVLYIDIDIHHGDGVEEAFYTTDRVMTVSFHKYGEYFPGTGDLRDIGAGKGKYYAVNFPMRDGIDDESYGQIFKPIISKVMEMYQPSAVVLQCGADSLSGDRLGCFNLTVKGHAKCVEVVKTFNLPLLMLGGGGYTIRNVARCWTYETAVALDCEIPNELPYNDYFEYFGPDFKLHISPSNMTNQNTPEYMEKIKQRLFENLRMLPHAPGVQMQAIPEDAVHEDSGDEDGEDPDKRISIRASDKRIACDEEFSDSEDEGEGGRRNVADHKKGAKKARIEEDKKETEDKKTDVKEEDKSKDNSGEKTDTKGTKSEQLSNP

In the case of `CC(=O)OC[C@H]1OC(Oc2ccc(-c3cn(CCCCCCC(=O)NO)nn3)cc2)C(OC(C)=O)[C@@H](OC(C)=O)[C@@H]1OC(C)=O` (stereo in doubt) [STR-V-176, (2R,3R,4S,5R,6S)-2-(acetoxymethyl)-6-(4-(1-(7-(hydroxyamino)-7-oxoheptyl)-1H-1,2,3-triazol-4-yl)phenoxy)tetrahydro-2H-pyran-3,4,5-triyl triacetate], the IC50 against HDAC2 amounted to 4.2 nM; against HDAC1, 1.43 nM; against HDAC8, 271 nM; at HDAC6, 1.05 nM.
In the case of `CC(=O)OC[C@H]1OC(Oc2ccc3cc(-c4cn(CCCCCCC(=O)NO)nn4)ccc3c2)C(OC(C)=O)[C@@H](OC(C)=O)[C@@H]1OC(C)=O` (stereo in doubt) [STR-V-177, (2R,3R,4S,5R,6S)-2-(acetoxymethyl)-6-((6-(1-(7-(hydroxyamino)-7-oxoheptyl)-1H-1,2,3-triazol-4-yl)naphthalen-2-yl)oxy)tetrahydro-2H-pyran-3,4,5-triyl triacetate], the IC50 against HDAC2 was determined as 13.2 nM; against HDAC1, 2.2 nM; at HDAC8, 718 nM; on HDAC6 it was 1.65 nM.
As for `CC(=O)OC[C@H]1O[C@H](Oc2ccc(-c3cn(CCCCCCC(=O)NO)nn3)cc2)[C@H](OC(C)=O)[C@@H](OC(C)=O)[C@@H]1OC(C)=O` [Compound 1], the IC50 in the assay on VERO was over 100 µM; with Hep-G2, 10.1 ± 1.2 µM; with A549 it was over 100 µM.
For the compound `O=C(CCCCCCn1cc(-c2ccc(O[C@H]3O[C@H](CO)[C@@H](O)[C@H](O)[C@H]3O)cc2)nn1)NO` [Compound 2], the IC50 is 76.4 ± 0.2 µM with VERO, 10.4 ± 0.6 µM with Hep-G2 and 100 ± 0.1 µM with A549.
The like results for `O=C(CCCCCCn1cc(-c2ccc3cc(O[C@H]4O[C@H](CO)[C@@H](O)[C@H](O)[C@H]4O)ccc3c2)nn1)NO` [Compound 3] were, in that order, 34.1 ± 3 µM, 6.7 ± 1.6 µM and 77.2 ± 4.3 µM.
With `CC(=O)OC[C@H]1O[C@H](Oc2ccc(-c3cn(CCCCCCC(=O)NO)nn3)cc2)[C@@H](OC(C)=O)[C@@H](OC(C)=O)[C@@H]1OC(C)=O` [Compound 4], the IC50 with VERO was 77.4 ± 5.6 µM; in the assay with Hep-G2 it was 8 ± 0.9 µM; with A549, 64.7 ± 7 µM.
As to `O=C(CCCCCCn1cc(-c2ccc(O[C@H]3O[C@H](CO)[C@@H](O)[C@H](O)[C@@H]3O)cc2)nn1)NO` [Compound 5], the IC50 in the assay on VERO is 65.5 ± 8.3 µM; in the assay with Hep-G2, 22.3 ± 2 µM; with A549, over 100 µM.
As to `CC(=O)OC[C@H]1O[C@H](Oc2ccc3cc(-c4cn(CCCCCCC(=O)NO)nn4)ccc3c2)[C@@H](OC(C)=O)[C@@H](OC(C)=O)[C@@H]1OC(C)=O` [Compound 6], the IC50 amounted to 19.2 ± 0.9 µM in the assay on VERO, 7.4 ± 0.9 µM in the assay on Hep-G2 and 39.6 ± 0.6 µM in the assay with A549.
With `O=C(CCCCCCn1cc(-c2ccc3cc(O[C@H]4O[C@H](CO)[C@@H](O)[C@H](O)[C@@H]4O)ccc3c2)nn1)NO` [Compound 7], the IC50 in the assay on VERO is 33.6 ± 5.5 µM; with Hep-G2, 7.5 ± 0.8 µM; with A549, 20.1 ± 1.1 µM.
Consider `O=C(/C=C/c1ccc2cc(O[C@H]3O[C@H](CO)[C@@H](O)[C@H](O)[C@H]3O)ccc2c1)NO` [Compound 8], for which the IC50 was 82.1 µM with VERO, 66.1 µM in the assay with Hep-G2 and over 100 µM with A549.
Take `O=C(CCCCCn1cc(-c2ccc3cc(O[C@H]4O[C@H](CO)[C@@H](O)[C@H](O)[C@@H]4O)ccc3c2)nn1)NO` [Compound 9]: the results for the 50% inhibitory concentration (IC50) with VERO, in the assay on Hep-G2 and in the assay on A549 were over 100 µM, 13.5 ± 2.7 µM and 66.7 ± 16.1 µM, respectively.
`O=C(CCCCCn1cc(-c2ccc(O[C@H]3O[C@H](CO)[C@@H](O)[C@H](O)[C@@H]3O)cc2)nn1)NO` [Compound 10]: the IC50 in the assay on VERO is over 100 µM; in the assay with Hep-G2 it was 42.8 ± 0.5 µM; in the assay with A549, over 100 µM.
`O=C(/C=C/c1ccc2cc(O[C@H]3O[C@H](CO)[C@@H](O)[C@H](O)[C@@H]3O)ccc2c1)NO` [Compound 11]: the IC50 in the assay with VERO is over 100 µM; in the assay with Hep-G2, 78.5 ± 11.6 µM; with A549 it was over 100 µM.
Regarding `O=C(/C=C/c1ccc(O[C@H]2O[C@H](CO)[C@@H](O)[C@H](O)[C@H]2O)cc1)NO` [Compound 12], the IC50 with VERO was over 100 µM; in the assay on Hep-G2, 45.3 ± 5.9 µM; in the assay with A549, over 100 µM.
For `C[C@H]1C[C@@H](N(C)C)[C@H](O)C(Oc2ccc(-c3cn(CCCCCCC(=O)NO)nn3)cc2)O1` (stereo partly shown) [Compound 13], the results for the IC50 in the assay with VERO, in the assay with Hep-G2 and in the assay on A549 were 76.4 µM, 9.6 ± 3.4 µM and 33.7 ± 1.8 µM, respectively.
Take `Nc1ccc(F)cc1NC(=O)CCCCCCn1cc(-c2ccc(O[C@H]3O[C@H](CO)[C@@H](O)[C@H](O)[C@H]3O)cc2)nn1` [Compound 14]: the figures for the half-inhibitory concentration (IC50) with VERO and in the assay with A549 were over 100 µM and 59.9 µM, respectively.
On to `Nc1cc(F)ccc1NC(=O)CCCCCCn1cc(-c2ccc(O[C@H]3O[C@H](CO)[C@@H](O)[C@H](O)[C@H]3O)cc2)nn1` [Compound 15], for which the IC50 with VERO is over 100 µM; in the assay on Hep-G2 it was about 100 µM; with A549, over 100 µM.
As for `Nc1ccc(-c2cccs2)cc1NC(=O)CCCCCCn1cc(-c2ccc(O[C@H]3O[C@H](CO)[C@@H](O)[C@H](O)[C@H]3O)cc2)nn1` [Compound 16], the IC50 in the assay with VERO was over 100 µM; with Hep-G2, over 100 µM; in the assay on A549, 49.5 µM.
Take `O=C(CCCCCn1cc(-c2ccc(O[C@H]3O[C@H](CO)[C@@H](O)[C@H](O)[C@@H]3O)cc2)nn1)NO` [STR-II-29]: the 50% inhibitory concentration (IC50) against HDAC2 amounted to 146 nM; at HDAC1, 68.2 nM; against HDAC8, 3590 nM; against HDAC6 it was 6.45 nM.
For the compound `O=C(CCCCCn1cc(-c2ccc3cc(O[C@H]4O[C@H](CO)[C@@H](O)[C@H](O)[C@@H]4O)ccc3c2)nn1)NO` [STR-II-35], the half-maximal inhibitory concentration (IC50) at HDAC2 is 47.1 nM; against HDAC1 it was 26.8 nM; at HDAC8, 1970 nM; on HDAC6 it was 2.03 nM.
As for `O=C(CCCCCCn1cc(-c2ccc3cc(O[C@H]4O[C@H](CO)[C@@H](O)[C@H](O)[C@@H]4O)ccc3c2)nn1)NO` [STR-II-36], the IC50 came out at 10.4 nM against HDAC2, 3.28 nM at HDAC1, 319 nM at HDAC8 and 0.719 nM on HDAC6.
The like results for `O=C(/C=C/c1ccc2cc(O[C@H]3O[C@H](CO)[C@@H](O)[C@H](O)[C@H]3O)ccc2c1)NO` [STR-V-115] were, in that order, 1030 nM, 427 nM, 461 nM and 16.5 nM.
In the case of `O=C(/C=C/c1ccc(O[C@H]2O[C@H](CO)[C@@H](O)[C@H](O)[C@H]2O)cc1)NO` [STR-V-121], the IC50 against HDAC2 worked out at 6500 nM; at HDAC1, 3840 nM; at HDAC8 it was 1820 nM; on HDAC6 it was 75.4 nM.
Regarding `O=C(CCCCCCn1cc(-c2ccc(O)cc2)nn1)NO` [STR-V-183, N-hydroxy-7-(4-(4-hydroxyphenyl)-11-1-1,2,3-triazol-1-yl)heptanamide, reference compound], the IC50 was found to be 27.2 nM against HDAC2, 12.2 nM against HDAC1, 1960 nM on HDAC8 and 1.05 nM on HDAC6.
